Source: PubChem BioAssay AID651717 (Broad Institute, 2012)

Test system: mESC Bmi1-luciferase reporter, firefly/renilla ratio, 24 h
Test: compounds raising Bmi1 reporter signal – mouse embryonic stem cells, luciferase, cherry-pick, esBAF inhibitor project, dose response (AID 651717);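 further: luciferase knocked into Bmi1 locus with EF-1a renilla as cell number control; rising ratio signals esBAF inhibition which derepresses Bmi1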

Q: Which AC40 does the source give for Cc1cccc(-c2noc(CCC(=O)N3CCN(c4cc(C)ccc4C)CC3)n2)c1 here?
A: Its AC40 is 2.82 µM.

Q: For CCn1cnc2cc(NCc3ccc(OC)cc3)ccc21, which AC40 is on record?
A: Its AC40 is 0.992 µM.

Q: For Cc1ccc(-c2nnn(CC(=O)N(Cc3cccs3)C(C(=O)NC3CCCC3)c3ccncc3)n2)cc1 (configuration not stated), which AC40 is on record?
A: The AC40 was 34.5 µM.

Q: With Cc1ccc(Cl)cc1-c1cc(C(=O)Nc2ccc(F)cc2)[nH]n1 as the compound, how does the AC40 read?
A: Its AC40 is 4.92 µM.

Q: Which AC40 does the source give for O=c1c2ccccc2oc2cc(-c3ccc4cc[nH]c4c3)ccc12 here?
A: Its AC40 is 1.46 µM.

Q: COc1ccc(-c2cnc(C(O)c3ccccc3)[nH]2)cc1 (configuration not stated) was tested. Which AC40 did it give?
A: The AC40 was 1.15 µM.

Q: For O=C(Nc1ccccn1)c1c(O)c2cccc3c2n(c1=O)CCC3, which AC40 is on record?
A: Its AC40 is 18.4 µM.

Q: O=C(Nc1ccccc1)c1cc(C2CCCN(C(=O)CCc3ccccc3)C2)on1 (configuration not stated) was tested. Which AC40 did it give?
A: The AC40 was 5.03 µM.

Q: O=C(c1cc(-c2ccc(Cl)cc2)on1)N1CCN(c2ccccc2)CC1 was tested. Which AC40 did it give?
A: Its AC40 is 6.4 µM.

Q: With CC(=O)NCCNc1nc2cc(-c3ccc(C)cc3)sc2c(=O)n1C as the compound, how does the AC40 read?
A: The AC40 was 14.3 µM.

Q: For c1ccc(Cn2cnc3ccccc32)cc1, which AC40 is on record?
A: The AC40 was 0.984 µM.

Q: Cc1ccc(C(=O)Cc2ccccc2)c(O)c1 was tested. Which AC40 did it give?
A: Its AC40 is 6.34 µM.

Q: How did the AC40 turn out when CCc1nc(SCc2ccc(Br)cc2)n[nH]1 was run?
A: Its AC40 is 2.5 µM.

Q: For O=c1/c(=C\c2cccnc2)sc2nc3ccccc3n12, which AC40 is on record?
A: The AC40 was 9.85 µM.

Q: How did the AC40 turn out when CCc1nnc(NC(=O)c2ccc3c(=O)n4c(nc3c2)CCC4)s1 was run?
A: The AC40 was 2.51 µM.

Q: How did the AC40 turn out when N#Cc1ccc(Nc2nc(-c3ccccc3)cs2)cc1 was run?
A: Its AC40 is 3.97 µM.

Q: For COc1ccc(-c2csc(C(C)(O)c3ccccc3)n2)cc1 (configuration not stated), which AC40 is on record?
A: The AC40 was 14.9 µM.

Q: Which AC40 does the source give for Cc1cc(Cl)ccc1OCc1nnc(-c2ccccc2C)o1 here?
A: Its AC40 is 5.44 µM.

Q: How did the AC40 turn out when COc1ccc2c(c1)CC/C(=C/c1ccccn1)C2=O was run?
A: The AC40 was 1.86 µM.

Q: Which AC40 does the source give for CN(Cc1nccn1C)C(=O)c1ccc2nc(Cc3ccccc3F)oc2c1 here?
A: Its AC40 is 5.37 µM.

Q: CCCN1C[C@@H](C)[C@H](OC)CN(C)C(=O)c2cc(NC(=O)c3ccccc3F)ccc2OC[C@H]1C was tested. Which AC40 did it give?
A: The AC40 was 5.77 µM.

Q: O=C(Nc1ccc(SC(F)F)cc1)c1ccc2c(=O)n3c(nc2c1)CCC3 was tested. Which AC40 did it give?
A: Its AC40 is 2.02 µM.

Q: Cc1csc(=O)n1CC(=O)OCc1cccc2ccccc12 was tested. Which AC40 did it give?
A: The AC40 was 11.4 µM.

Q: How did the AC40 turn out when Cn1c(/C=C/c2ccc(Br)cc2)nc2ccccc2c1=O was run?
A: Its AC40 is 4.88 µM.

Q: Which AC40 does the source give for C=CCn1cccc(C(=O)Nc2ccc(F)cc2)c1=O here?
A: Its AC40 is 7.32 µM.

Q: How did the AC40 turn out when Cc1ccc(C(=O)NCCc2nnc(SCC(=O)Nc3nc(-c4ccccc4)cs3)n2C)cc1 was run?
A: Its AC40 is 17.2 µM.

Q: With CC(=O)c1ccc(OCc2cc(C(=O)N(C)Cc3cc(C)no3)no2)cc1 as the compound, how does the AC40 read?
A: Its AC40 is 7.14 µM.

Q: How did the AC40 turn out when NC(=O)c1ccc(CSc2nc3ccccc3s2)cc1 was run?
A: Its AC40 is 4.64 µM.

Q: How did the AC40 turn out when CO[C@@H]1CN(C)C(=O)c2ccc(NC(=O)Nc3ccc4c(c3)OCO4)cc2OC[C@H](C)NC[C@@H]1C was run?
A: The AC40 was 5 µM.

Q: For COC(=O)c1c(-c2ccc(S(C)(=O)=O)cc2)sc2ccc(OC)cc12, which AC40 is on record?
A: Its AC40 is 0.954 µM.

Q: Cc1ccc(NC(=O)c2ccc3c(=O)n4c(nc3c2)CCC4)cc1F was tested. Which AC40 did it give?
A: The AC40 was 0.945 µM.

Q: Which AC40 does the source give for COc1ccc(C(=O)N=c2sc3ccccc3n2C)cc1OC here?
A: Its AC40 is 2.13 µM.

Q: COc1ccc(NC(=O)CCC(=O)Nc2ccc3nc(N4CCOCC4)cc(C)c3c2)c(OC)c1 was tested. Which AC40 did it give?
A: Its AC40 is 6.04 µM.

Q: How did the AC40 turn out when COc1ccccc1Cc1c(-c2ccc(C)cc2)nc2ccc(Cl)cn12 was run?
A: The AC40 was 1.18 µM.

Q: For Fc1ccc2cc(-c3ccsc3)ncc2c1, which AC40 is on record?
A: Its AC40 is 3.16 µM.

Q: Which AC40 does the source give for c1ccc(Nc2nc3ccccc3n3nnnc23)cc1 here?
A: Its AC40 is 7.2 µM.

Q: CCCCN(Cc1ccccc1)c1ncnc2nc[nH]c12 was tested. Which AC40 did it give?
A: The AC40 was 10.1 µM.

Q: For Cc1ccc(NC(=O)C(=O)Nc2ccc(C)cn2)nc1, which AC40 is on record?
A: The AC40 was 0.497 µM.

Q: Which AC40 does the source give for CC(NC(=O)c1cc(COc2ccc(-n3cncn3)cc2)on1)c1ccc(F)cc1 (configuration not stated) here?
A: Its AC40 is 5.4 µM.

Q: How did the AC40 turn out when COc1cc(N=Nc2ccc(C(=O)N(C)C)cc2)c(C)cc1N was run?
A: The AC40 was 8.86 µM.

Q: For Nc1cc(OCc2ccccc2)ccc1OCc1ccccc1, which AC40 is on record?
A: Its AC40 is 5.17 µM.

Q: With O=C(Nc1ccc(Cl)c(Cl)c1)c1ccncc1 as the compound, how does the AC40 read?
A: The AC40 was 6.32 µM.

Q: Which AC40 does the source give for Fc1cc(Cl)cc2ccc(-c3ccccc3)nc12 here?
A: The AC40 was 1.45 µM.

Q: How did the AC40 turn out when COc1ccc(CNC(=O)c2ccc3ccccc3n2)cc1 was run?
A: The AC40 was 29.4 µM.

Q: With Cc1ccc(NC(=O)c2ccnc(C(C)(C)C)c2)cc1 as the compound, how does the AC40 read?
A: The AC40 was 1.95 µM.

Q: How did the AC40 turn out when COc1ccccc1C(=O)NCCC(=O)NC1CCC(C)CC1 (configuration not stated) was run?
A: Its AC40 is 4.6 µM.

Q: Which AC40 does the source give for COc1ccccc1NC(=O)Nc1nc(CC(=O)Nc2ccc(N(C)C)cc2)cs1 here?
A: The AC40 was 8.78 µM.

Q: For Cc1noc(C)c1COC(=O)c1cc(C)n(-c2ccccc2)c1C, which AC40 is on record?
A: Its AC40 is 10 µM.

Q: For O=C(Nc1ccc2c(c1)COC2=O)c1ccc(Cl)c(Cl)c1, which AC40 is on record?
A: Its AC40 is 2.46 µM.

Q: For COC(=O)C(Cc1c[nH]c2ccccc12)NC(=O)c1ccc2nc[nH]c2c1 (configuration not stated), which AC40 is on record?
A: The AC40 was 14.7 µM.

Q: For O=C(Nc1ccccc1Cl)NC1CCCCCCC1, which AC40 is on record?
A: The AC40 was 5.67 µM.

Q: COC(=O)c1ccc2[nH]c(C(C)(C)O)c(C)c2c1 was tested. Which AC40 did it give?
A: Its AC40 is 1.37 µM.

Q: For CC(=O)Nc1ccc(CNc2nc3cc(-c4ccc(F)cc4)sc3c(=O)n2C)cc1, which AC40 is on record?
A: The AC40 was 1.69 µM.

Q: For COc1ccccc1/C=C/C=N/n1c(-c2ccccn2)n[nH]c1=S, which AC40 is on record?
A: Its AC40 is 9.01 µM.

Q: Which AC40 does the source give for O=C(NNC(=O)c1cccc2ccccc12)c1ccc(Cl)cc1Cl here?
A: Its AC40 is 12.7 µM.

Q: Which AC40 does the source give for CN(C)S(=O)(=O)c1ccc(C(=O)Nc2ccc3c(c2)CCC3)cc1 here?
A: The AC40 was 4.91 µM.

Q: c1ccc(-c2cnnc(N3CCCCC3)n2)cc1 was tested. Which AC40 did it give?
A: The AC40 was 1.99 µM.

Q: With O=C1C(=Cc2ccccn2)CCc2ccccc21 as the compound, how does the AC40 read?
A: The AC40 was 20.1 µM.

Q: How did the AC40 turn out when Cc1cccc(Oc2ccc(Cl)cc2N)c1 was run?
A: The AC40 was 5.77 µM.

Q: How did the AC40 turn out when Fc1ccc2nc(-c3ccccc3)ccc2c1 was run?
A: The AC40 was 1.14 µM.

Q: For COc1ccccc1CNc1nc2cc(-c3sccc3C)sc2c(=O)n1C, which AC40 is on record?
A: Its AC40 is 6.95 µM.

Q: With Clc1ccc(-c2cnnc(-c3ccccn3)n2)cc1 as the compound, how does the AC40 read?
A: The AC40 was 1.79 µM.
